For three compounds, IC50 results are on record in ChEMBL document CHEMBL4334516, “Kinase Chemodiversity from the Arctic: The Breitfussins” (J Med Chem, 2019).

For assay [1], the target named is Cyclin-dependent kinase 9 (Homo sapiens, UniProt P50750). The experiment in a line: Inhibition of CDK9 (unknown origin).
In another assay the test system is MCF7. The experiment in a line: Cytotoxicity in human MCF7 cells assessed as reduction in cell viability incubated for 72 hrs by MTS assay. The note with it: MCF7, 72 h. The format is functional, cell-based. For orientation: Tetrazolium dyes change colour on reduction, which living cells bring about.
The target in assay [2] is Serine/threonine-protein kinase SIK3 (Homo sapiens, UniProt Q9Y2K2). The experiment in a line: Inhibition of SIK3 (unknown origin) by [33P]-ATP filter binding kinase assay.
Sequence of Serine/threonine-protein kinase SIK3 (Q9Y2K2 whole entry): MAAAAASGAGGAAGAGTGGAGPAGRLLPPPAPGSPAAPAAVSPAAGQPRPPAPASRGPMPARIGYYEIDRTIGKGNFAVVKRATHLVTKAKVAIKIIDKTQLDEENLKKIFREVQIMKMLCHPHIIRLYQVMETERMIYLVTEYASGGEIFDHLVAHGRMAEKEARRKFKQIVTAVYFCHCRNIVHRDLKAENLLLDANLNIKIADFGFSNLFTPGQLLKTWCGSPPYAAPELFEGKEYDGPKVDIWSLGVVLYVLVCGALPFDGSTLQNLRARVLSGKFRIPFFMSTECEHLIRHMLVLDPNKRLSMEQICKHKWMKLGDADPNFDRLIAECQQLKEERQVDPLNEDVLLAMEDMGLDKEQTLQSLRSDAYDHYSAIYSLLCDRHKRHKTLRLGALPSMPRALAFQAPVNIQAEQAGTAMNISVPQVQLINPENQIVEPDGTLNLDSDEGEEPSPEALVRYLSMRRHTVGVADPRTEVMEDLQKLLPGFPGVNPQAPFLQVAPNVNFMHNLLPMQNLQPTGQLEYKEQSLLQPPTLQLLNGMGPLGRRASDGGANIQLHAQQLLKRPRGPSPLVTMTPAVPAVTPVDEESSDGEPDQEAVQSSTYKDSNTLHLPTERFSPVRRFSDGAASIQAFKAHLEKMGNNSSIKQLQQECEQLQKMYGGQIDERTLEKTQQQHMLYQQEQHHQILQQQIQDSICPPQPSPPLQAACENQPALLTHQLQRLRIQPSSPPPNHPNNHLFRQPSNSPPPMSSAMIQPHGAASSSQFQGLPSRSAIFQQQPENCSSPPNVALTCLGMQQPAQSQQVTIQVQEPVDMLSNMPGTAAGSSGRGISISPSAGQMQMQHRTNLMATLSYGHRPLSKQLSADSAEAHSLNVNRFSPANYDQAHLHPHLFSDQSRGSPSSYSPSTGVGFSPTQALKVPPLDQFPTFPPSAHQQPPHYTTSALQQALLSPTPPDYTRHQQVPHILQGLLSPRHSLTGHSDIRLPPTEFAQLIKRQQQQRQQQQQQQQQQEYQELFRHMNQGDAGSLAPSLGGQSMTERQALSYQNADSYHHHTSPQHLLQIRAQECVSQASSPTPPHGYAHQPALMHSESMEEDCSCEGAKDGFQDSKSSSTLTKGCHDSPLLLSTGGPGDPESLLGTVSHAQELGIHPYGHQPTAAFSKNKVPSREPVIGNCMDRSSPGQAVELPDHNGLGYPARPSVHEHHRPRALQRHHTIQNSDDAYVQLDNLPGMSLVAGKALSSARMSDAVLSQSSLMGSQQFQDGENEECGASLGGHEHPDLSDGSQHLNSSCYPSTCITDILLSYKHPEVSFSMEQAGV
For another assay, the system named is MOLT-4. Nature of the assay: Cytotoxicity in human MOLT4 cells assessed as reduction in cell viability incubated for 72 hrs by MTS assay. Type of assay: functional, cell-based. Conditions: MOLT-4, 72 h.
In the next assay the target is Aurora kinase B (Homo sapiens, UniProt Q96GD4). The experiment in a line: Inhibition of Aurora B (unknown origin) by [33P]-ATP filter binding kinase assay.
Assay [3] deals with Mitogen-activated protein kinase kinase kinase 11 (Homo sapiens, UniProt Q16584). Nature of the assay: Inhibition of MLK3 (unknown origin) by [33P]-ATP filter binding kinase assay.
Sequence of Mitogen-activated protein kinase kinase kinase 11 (Q16584 whole entry): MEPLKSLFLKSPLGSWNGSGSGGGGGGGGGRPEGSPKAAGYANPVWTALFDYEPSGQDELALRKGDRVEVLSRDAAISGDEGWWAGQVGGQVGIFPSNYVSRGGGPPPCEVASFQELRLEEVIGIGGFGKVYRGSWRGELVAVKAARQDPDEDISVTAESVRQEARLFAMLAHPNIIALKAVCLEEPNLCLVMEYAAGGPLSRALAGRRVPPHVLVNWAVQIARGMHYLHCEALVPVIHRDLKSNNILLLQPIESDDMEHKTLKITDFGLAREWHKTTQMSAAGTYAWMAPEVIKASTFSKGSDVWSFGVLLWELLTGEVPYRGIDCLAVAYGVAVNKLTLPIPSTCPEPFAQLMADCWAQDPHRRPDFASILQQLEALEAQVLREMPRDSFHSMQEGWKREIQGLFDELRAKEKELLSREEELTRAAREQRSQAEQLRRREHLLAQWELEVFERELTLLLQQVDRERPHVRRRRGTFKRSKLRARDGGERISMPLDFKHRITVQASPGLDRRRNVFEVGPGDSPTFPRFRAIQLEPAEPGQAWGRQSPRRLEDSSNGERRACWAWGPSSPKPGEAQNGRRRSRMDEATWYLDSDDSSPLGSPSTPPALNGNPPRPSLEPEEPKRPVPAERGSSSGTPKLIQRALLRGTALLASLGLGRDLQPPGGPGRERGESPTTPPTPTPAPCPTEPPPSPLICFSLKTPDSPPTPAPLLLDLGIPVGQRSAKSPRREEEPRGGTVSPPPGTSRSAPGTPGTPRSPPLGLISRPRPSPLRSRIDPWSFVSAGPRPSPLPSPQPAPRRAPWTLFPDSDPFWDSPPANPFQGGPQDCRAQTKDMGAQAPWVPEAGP
The target in assay [4] is Mitogen-activated protein kinase kinase kinase 9 (Homo sapiens, UniProt P80192). Nature of the assay: Inhibition of MLK1 (unknown origin) by [33P]-ATP filter binding kinase assay.
Sequence of Mitogen-activated protein kinase kinase kinase 9 (P80192 whole entry): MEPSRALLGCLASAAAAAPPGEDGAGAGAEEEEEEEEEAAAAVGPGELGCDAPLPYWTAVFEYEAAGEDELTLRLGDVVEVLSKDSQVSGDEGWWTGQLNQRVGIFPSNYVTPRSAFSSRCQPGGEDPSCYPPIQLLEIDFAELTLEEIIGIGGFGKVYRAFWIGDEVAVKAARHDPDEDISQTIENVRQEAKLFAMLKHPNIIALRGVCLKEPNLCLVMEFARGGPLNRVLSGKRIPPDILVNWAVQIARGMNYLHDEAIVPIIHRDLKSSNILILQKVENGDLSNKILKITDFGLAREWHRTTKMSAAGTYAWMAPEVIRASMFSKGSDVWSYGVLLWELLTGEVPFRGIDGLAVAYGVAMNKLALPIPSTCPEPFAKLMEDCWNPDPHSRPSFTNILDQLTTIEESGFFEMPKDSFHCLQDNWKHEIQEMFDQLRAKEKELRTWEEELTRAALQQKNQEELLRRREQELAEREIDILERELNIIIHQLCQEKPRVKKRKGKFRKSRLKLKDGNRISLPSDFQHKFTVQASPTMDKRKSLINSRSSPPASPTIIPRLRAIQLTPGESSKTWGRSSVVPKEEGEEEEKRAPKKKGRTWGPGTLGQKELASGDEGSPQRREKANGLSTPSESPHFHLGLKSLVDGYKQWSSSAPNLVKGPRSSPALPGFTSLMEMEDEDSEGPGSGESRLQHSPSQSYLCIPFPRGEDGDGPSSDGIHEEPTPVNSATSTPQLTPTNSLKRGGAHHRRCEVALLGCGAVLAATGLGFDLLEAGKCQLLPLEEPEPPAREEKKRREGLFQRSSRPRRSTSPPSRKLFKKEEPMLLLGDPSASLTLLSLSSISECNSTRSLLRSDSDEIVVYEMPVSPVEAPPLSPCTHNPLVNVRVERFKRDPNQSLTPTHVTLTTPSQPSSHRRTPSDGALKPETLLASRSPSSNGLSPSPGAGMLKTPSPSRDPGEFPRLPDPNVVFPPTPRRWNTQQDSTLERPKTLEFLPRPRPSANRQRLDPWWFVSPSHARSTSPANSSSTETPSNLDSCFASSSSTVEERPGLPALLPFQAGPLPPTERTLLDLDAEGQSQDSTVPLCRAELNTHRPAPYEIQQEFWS
Assay [5] concerns the target Receptor-interacting serine/threonine-protein kinase 2 (Homo sapiens, UniProt O43353). The experiment in a line: Inhibition of RIPK2 (unknown origin) by [33P]-ATP filter binding kinase assay.
A further assay concerns MRC5. The experiment in a line: Cytotoxicity in human MRC5 cells assessed as reduction in cell viability incubated for 72 hrs by MTS assay. Type of assay: cell-based. The note with it: MRC5, 72 h.
In assay [6] the target is T1, Mitogen-activated protein kinase kinase kinase kinase 2 (Homo sapiens, UniProt Q12851).
T1 sequence (Q12851 whole entry): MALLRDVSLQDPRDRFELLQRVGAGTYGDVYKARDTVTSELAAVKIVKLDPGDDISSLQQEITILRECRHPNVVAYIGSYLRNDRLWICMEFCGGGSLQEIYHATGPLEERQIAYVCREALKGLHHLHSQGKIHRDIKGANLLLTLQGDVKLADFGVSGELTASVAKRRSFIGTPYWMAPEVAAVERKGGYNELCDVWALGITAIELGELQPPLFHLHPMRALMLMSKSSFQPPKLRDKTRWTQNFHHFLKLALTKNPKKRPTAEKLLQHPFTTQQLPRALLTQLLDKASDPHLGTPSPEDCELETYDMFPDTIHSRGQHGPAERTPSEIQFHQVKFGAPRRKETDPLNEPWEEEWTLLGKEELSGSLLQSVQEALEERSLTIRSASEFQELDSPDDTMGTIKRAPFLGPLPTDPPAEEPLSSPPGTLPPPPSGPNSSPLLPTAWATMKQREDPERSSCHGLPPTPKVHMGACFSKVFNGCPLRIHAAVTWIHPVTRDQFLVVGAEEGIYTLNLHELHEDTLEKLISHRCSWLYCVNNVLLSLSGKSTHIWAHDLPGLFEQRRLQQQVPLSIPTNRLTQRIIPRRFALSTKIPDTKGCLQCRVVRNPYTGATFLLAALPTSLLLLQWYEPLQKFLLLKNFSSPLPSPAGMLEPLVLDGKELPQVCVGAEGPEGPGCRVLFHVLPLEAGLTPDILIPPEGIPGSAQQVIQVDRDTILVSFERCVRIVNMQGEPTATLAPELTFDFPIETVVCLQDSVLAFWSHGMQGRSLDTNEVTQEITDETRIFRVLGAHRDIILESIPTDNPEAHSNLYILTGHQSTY
The experiment in a line: Inhibition of GCK (unknown origin) by [33P]-ATP filter binding kinase assay.

Assay [7] addresses Dual specificity tyrosine-phosphorylation-regulated kinase 1A (Homo sapiens, UniProt Q13627). The experiment in a line: Inhibition of DYRK1A (unknown origin) by [33P]-ATP filter binding kinase assay.
The subject of another assay is MDA-MB-468. Nature of the assay: Cytotoxicity in human MDA-MB-468 cells assessed as reduction in cell viability incubated for 72 hrs by MTS assay. Type of assay: functional, cell-based. The note with it: MDA-MB-468, 72 h.
Another assay has as its system SK-BR-3. The experiment in a line: Cytotoxicity in human SK-BR-3 cells assessed as reduction in cell viability incubated for 72 hrs by MTS assay. Type of assay: functional, cell-based. The note with it: SK-BR-3, 72 h.
The target in assay [8] is T2, Mitogen-activated protein kinase kinase kinase 7 (Homo sapiens, UniProt O43318).
T2 sequence (O43318 whole entry): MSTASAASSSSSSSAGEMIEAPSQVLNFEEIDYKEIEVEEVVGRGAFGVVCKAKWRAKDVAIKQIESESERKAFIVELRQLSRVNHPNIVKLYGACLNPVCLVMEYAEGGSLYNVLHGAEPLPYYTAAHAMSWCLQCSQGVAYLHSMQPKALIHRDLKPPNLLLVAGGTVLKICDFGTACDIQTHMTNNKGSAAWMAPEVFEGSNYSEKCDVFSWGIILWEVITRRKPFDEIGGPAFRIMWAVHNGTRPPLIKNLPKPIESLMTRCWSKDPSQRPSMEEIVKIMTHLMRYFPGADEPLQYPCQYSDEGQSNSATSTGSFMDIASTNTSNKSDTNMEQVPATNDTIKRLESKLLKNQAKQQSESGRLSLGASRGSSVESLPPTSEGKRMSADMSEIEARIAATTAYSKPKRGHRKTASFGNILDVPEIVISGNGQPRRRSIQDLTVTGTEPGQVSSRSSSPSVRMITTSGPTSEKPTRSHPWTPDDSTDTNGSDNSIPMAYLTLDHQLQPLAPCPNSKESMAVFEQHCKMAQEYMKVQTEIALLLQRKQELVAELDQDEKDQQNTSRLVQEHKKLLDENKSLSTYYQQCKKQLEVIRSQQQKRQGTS
The experiment in a line: Inhibition of TAK1 (unknown origin) by [33P]-ATP filter binding kinase assay.

Assay [9] concerns the target T3, Mitogen-activated protein kinase 15 (Homo sapiens, UniProt Q8TD08).
T3 sequence (Q8TD08 whole entry): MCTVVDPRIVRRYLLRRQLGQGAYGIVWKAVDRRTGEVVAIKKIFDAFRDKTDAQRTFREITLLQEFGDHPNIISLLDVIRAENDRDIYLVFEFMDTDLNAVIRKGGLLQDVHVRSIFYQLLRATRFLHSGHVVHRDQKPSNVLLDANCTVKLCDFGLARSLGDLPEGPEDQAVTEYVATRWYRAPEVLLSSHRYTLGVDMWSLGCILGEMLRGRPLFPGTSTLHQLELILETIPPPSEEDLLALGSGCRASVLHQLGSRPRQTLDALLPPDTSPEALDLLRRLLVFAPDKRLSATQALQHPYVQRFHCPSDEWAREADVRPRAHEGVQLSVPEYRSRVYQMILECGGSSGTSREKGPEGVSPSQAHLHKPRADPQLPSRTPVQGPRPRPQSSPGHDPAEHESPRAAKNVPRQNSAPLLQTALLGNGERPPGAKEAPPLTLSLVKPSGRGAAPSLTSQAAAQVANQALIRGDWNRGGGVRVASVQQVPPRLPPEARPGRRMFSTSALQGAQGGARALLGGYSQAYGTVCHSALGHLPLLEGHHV
Nature of the assay: Inhibition of ERK8 (unknown origin) by [33P]-ATP filter binding kinase assay.

The target in assay [10] is Serine/threonine-protein kinase pim-1 (Homo sapiens, UniProt P11309). Nature of the assay: Inhibition of PIM1 (unknown origin) by [33P]-ATP filter binding kinase assay.
Sequence of Serine/threonine-protein kinase pim-1 (P11309 whole entry): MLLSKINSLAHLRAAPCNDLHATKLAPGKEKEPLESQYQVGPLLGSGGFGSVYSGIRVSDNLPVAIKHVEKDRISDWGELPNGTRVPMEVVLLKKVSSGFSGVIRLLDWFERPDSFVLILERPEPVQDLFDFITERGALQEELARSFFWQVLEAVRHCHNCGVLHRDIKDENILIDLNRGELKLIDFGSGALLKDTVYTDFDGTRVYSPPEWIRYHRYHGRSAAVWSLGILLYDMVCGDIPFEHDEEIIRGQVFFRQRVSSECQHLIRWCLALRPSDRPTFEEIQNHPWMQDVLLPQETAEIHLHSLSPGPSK
Another assay concerns the target T4, Aurora kinase A (Homo sapiens, UniProt O14965).
T4 sequence (O14965 whole entry): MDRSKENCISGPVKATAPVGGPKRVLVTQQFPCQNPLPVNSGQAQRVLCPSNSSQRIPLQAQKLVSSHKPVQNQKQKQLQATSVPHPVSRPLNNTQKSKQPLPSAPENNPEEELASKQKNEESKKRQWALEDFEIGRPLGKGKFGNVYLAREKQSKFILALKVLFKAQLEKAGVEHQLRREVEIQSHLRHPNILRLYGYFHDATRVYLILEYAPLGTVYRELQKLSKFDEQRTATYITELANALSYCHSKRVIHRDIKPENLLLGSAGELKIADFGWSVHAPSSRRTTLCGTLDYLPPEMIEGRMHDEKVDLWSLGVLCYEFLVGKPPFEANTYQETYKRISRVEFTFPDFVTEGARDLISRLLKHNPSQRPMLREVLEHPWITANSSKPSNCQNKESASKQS
Nature of the assay: Inhibition of Aurora A (unknown origin) by [33P]-ATP filter binding kinase assay.

Assay [11] deals with Serine/threonine-protein kinase pim-2 (Homo sapiens, UniProt Q9P1W9). Nature of the assay: Inhibition of PIM2 (unknown origin) by [33P]-ATP filter binding kinase assay.
Sequence of Serine/threonine-protein kinase pim-2 (Q9P1W9 whole entry): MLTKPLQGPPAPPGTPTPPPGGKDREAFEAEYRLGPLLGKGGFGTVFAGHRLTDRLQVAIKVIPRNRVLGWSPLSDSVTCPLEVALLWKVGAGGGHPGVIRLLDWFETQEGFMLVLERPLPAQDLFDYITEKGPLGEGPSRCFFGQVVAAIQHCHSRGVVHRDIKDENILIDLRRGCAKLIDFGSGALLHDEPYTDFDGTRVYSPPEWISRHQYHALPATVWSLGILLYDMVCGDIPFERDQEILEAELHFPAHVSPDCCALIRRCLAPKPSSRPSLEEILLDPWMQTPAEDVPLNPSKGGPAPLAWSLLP
The test system of another assay is MV4-11. The experiment in a line: Cytotoxicity in human MV4-11 cells assessed as reduction in cell viability incubated for 72 hrs by MTS assay. The format is functional, cell-based. The note with it: MV4-11, 72 h.
The next assay relates to A2058. Nature of the assay: Cytotoxicity in human A2058 cells assessed as reduction in cell viability incubated for 72 hrs by MTS assay. The format is functional, cell-based. Conditions: A2058, 72 h.
The target of assay [12] is Serine/threonine-protein kinase pim-3 (Homo sapiens, UniProt Q86V86). The experiment in a line: Inhibition of PIM3 (unknown origin) by [33P]-ATP filter binding kinase assay.
The test system of another assay is HT-29. Nature of the assay: Cytotoxicity in human HT-29 cells assessed as reduction in cell viability incubated for 72 hrs by MTS assay. Type of assay: functional, cell-based. Conditions: HT-29, 72 h.

SMILES strings stand for the structures. Some results are limits rather than exact numbers.

As usually defined, the IC50 is the concentration that gives 50% inhibition.

Sequence of Receptor-interacting serine/threonine-protein kinase 2 (O43353 whole entry): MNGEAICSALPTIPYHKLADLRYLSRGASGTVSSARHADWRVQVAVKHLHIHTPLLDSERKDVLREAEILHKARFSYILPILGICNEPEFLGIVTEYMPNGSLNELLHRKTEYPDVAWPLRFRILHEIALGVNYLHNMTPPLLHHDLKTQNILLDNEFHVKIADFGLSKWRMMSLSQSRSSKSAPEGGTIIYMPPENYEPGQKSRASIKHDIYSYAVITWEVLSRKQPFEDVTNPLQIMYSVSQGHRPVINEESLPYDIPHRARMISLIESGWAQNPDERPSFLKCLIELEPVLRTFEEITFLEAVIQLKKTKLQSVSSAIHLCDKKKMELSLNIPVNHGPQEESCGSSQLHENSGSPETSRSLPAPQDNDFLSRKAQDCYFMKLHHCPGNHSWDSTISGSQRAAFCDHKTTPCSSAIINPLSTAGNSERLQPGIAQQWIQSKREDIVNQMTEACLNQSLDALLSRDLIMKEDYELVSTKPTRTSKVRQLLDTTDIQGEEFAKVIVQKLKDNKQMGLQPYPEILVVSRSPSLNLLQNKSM

For `Cc1cc(=O)c2c(O)cc(O)c([C@@H]3CCN(C)C[C@@H]3O)c2o1`, in [1], 300 nM corresponded to half-maximal inhibition (IC50).

For the compound `COc1cc(Br)cc2[nH]cc(-c3cnc(-c4cc(Br)c[nH]4)o3)c12`, the concentration for half-maximal inhibition (IC50) in the assay on MCF7 was above 10 µM; in assay [2], above 10 µM; in the assay on MOLT-4, above 10 µM; on Aurora kinase B, 7.8 µM; in [3], 23 µM; in assay [4], 22 µM. Besides, the half-maximal inhibitory concentration (IC50) (in assay [5]; in the assay on MRC5; in [6]; in [7]; in the assay on MDA-MB-468; in the assay on SK-BR-3) was above 10 µM each time. Moreover, the half-inhibitory concentration (IC50) is 36 µM in [8]; above 10 µM in assay [9]; 43 µM in assay [10]; above 10 µM on Aurora kinase A; above 10 µM in assay [11]; above 10 µM in the assay on MV4-11. For the same compound, the IC50 (with A2058; in assay [12]; with HT-29) was above 10 µM each time.

For the compound `COc1cc(Br)cc2[nH]c(I)c(-c3cnc(-c4ccc[nH]4)o3)c12`, the IC50 is above 10 µM in the assay on MCF7; above 10 µM in [2]; above 10 µM in the assay on MOLT-4; 31 µM at Aurora kinase B; 19 µM in [3]; 21 µM in assay [4]. Moreover, the half-inhibitory concentration (IC50) in assay [5] is above 10 µM; with MRC5, above 10 µM; in [6] it was 40 µM; in assay [7], above 10 µM; in the assay with MDA-MB-468 it was above 10 µM; in the assay on SK-BR-3 it was above 10 µM. The half-maximal inhibitory concentration (IC50) was 18 µM in [8]; above 10 µM in assay [9]; 18 µM in assay [10]; above 10 µM at Aurora kinase A; above 10 µM in assay [11]; above 10 µM in the assay on MV4-11. Also, the 50% inhibitory concentration (IC50) (in the assay on A2058; in assay [12]; with HT-29) was above 10 µM each time.
